According to publication PMC4750701, “Role of Mitochondrial RNA Polymerase in the Toxicity of Nucleotide Inhibitors of Hepatitis C Virus” (Antimicrobial Agents and Chemotherapy, 2016):

Assays:
[1] = target: T1, Recombinant human DNA polymerase gamma (Homo sapiens, UniProt P54098); assay: Inhibition of human DNA polymerase gamma; type: biochemical; conditions: triphosphate form of the compound tested; read-out: Mean IC50 ± SD for DNA Pol γ
T1 construct: made in house; host or cells: insect cells
T1 sequence (P54098 1-1239): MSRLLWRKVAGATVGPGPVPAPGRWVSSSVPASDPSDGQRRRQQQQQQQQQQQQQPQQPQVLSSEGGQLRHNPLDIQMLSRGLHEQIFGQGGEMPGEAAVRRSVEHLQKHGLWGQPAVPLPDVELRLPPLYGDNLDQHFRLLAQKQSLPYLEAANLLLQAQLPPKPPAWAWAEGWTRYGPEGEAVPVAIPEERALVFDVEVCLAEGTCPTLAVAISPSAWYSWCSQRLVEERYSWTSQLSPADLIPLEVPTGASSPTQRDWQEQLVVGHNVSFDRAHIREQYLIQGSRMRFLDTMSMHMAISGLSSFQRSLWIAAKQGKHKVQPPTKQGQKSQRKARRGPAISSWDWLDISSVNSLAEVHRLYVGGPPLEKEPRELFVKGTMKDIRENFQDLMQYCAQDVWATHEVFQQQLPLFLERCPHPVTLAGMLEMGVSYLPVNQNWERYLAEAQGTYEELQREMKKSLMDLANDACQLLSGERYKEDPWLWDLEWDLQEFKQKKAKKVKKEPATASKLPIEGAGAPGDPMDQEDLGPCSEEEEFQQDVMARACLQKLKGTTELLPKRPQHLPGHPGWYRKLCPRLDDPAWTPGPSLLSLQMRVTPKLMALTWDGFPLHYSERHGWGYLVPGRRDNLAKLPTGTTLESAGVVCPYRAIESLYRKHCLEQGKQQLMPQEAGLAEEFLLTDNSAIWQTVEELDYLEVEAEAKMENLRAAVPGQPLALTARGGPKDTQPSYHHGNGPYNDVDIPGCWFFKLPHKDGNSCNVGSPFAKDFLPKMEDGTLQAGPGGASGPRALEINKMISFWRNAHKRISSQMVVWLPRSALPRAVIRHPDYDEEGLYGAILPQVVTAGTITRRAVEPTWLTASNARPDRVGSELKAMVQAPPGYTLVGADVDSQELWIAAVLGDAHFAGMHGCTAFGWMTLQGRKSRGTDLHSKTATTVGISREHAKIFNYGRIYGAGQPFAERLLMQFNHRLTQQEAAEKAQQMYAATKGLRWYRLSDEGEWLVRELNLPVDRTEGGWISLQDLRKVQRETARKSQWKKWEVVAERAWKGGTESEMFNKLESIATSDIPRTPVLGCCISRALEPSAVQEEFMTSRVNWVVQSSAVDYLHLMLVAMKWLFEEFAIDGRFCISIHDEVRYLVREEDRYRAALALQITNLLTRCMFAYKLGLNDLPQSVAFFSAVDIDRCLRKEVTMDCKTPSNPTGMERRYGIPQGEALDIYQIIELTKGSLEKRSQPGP
T1 sequence (Q9UHN1 26-485 partner limits assumed): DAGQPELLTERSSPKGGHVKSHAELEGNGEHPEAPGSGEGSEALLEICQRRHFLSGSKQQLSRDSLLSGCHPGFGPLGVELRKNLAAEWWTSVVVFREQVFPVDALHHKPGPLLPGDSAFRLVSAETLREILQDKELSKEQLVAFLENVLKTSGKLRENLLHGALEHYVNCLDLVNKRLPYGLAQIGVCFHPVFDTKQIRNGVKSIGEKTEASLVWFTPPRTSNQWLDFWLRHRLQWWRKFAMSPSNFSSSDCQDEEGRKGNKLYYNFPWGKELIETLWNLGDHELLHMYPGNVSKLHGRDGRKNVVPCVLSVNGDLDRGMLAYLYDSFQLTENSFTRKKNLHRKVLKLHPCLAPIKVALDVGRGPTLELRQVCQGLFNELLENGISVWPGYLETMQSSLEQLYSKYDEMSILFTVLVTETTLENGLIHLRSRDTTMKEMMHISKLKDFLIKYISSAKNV
Description: Activated fish sperm DNA was purchased from USB/Affymetrix (Santa Clara, CA) and used as a template for the DNA polymerases alpha, beta, and gamma. The DNA template used in the RNA Pol II assay was a 1,188-bp restriction fragment containing the cytomegalovirus (CMV) immediate early promoter (Promega, Madison, WI). The RNA and DNA oligonucleotides used in the mitochondrial RNA polymerase assay (see Table S1 in the supplemental material) were synthesized and PAGE purified by Thermo Scientific/Dharmacon (Lafayette, CO). RNA primer R12 was 5′-^32P-phosphorylated with [γ-^32P]ATP (3,000 Ci/mmol) and T4 kinase (New England BioLabs, Ipswich, MA).
Human DNA polymerase alpha, isolated from HeLa cell extracts, was from CHIMERx (Madison, WI). Recombinant human DNA polymerase beta, expressed in E. coli, was a gift from Zucai Suo at The Ohio State University. Recombinant human DNA polymerase gamma (including both the large subunit and the small subunit) was cloned, expressed, and purified from insect cells by Gilead Sciences (Foster City, CA) ([13]). RNA PolII was purchased as part of the HeLaScribe nuclear extract in vitro transcription system kit from Promega (Madison, WI). The recombinant human PolRMT and the transcription factors mitochondrial transcription factor A (mtTFA) and B2 (mtTFB2) were purchased from Enzymax (Lexington, KY). FLAG epitope-tagged RNA PolI and PolIII complexes were isolated from rat NSN1 cells and HeLa cells, respectively ([17], [18]). The inhibition of DNA polymerases alpha, beta, and gamma, PolRMT, and PolII and the rate of single-nucleotide incorporation by PolRMT have been described previously in detail ([12], [13], [19]). Inhibition of RNA PolI and PolIII was studied using published methods ([20], [21]). All concentrations were final unless noted otherwise. For the RNA PolI inhibition assay, a reaction mixture containing 50 mM HEPES (pH 7.9), 20% glycerol, 100 mM KCl, 1 mM dithiothreitol (DTT), 50 μg/ml calf thymus DNA, 4 mM MgCl2, 5 or 80 μM UTP (0.25 μl of [5,6-^3H]UTP, >25 Ci/mmol; PerkinElmer), 1 mM noncompeting NTP, competing NTP (5 μM for GTP, CTP, and UTP and 25 μM for ATP), and various concentrations (0 to 500 μM) of NTP analogs was preincubated at 30°C for 5 min. […] After incubation at 30°C for 20 min to 1 h, the reactions were terminated by pipetting the mixtures onto DEAE-cellulose discs (DE81; Whatman), and the products analyzed as described previously ([20], [21]).

[2] = tested on: mitochondrial DNA-encoded cytochrome c oxidase (COX-1; complex IV) protein level; assay: Mitochondrial protein synthesis assay (COX-1, MitoBiogenesis in-cell ELISA) in PC-3 cells; type: cell-based, human; conditions: human; PC-3 cells, COX-1, 5 days; read-out: Mean CC50 ± SD causing Mitochondrial toxicity: Protein synthesis
Outline: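 PC-3 cells were exposed to compound for 5 days. Protein levels of nuclear-encoded SDH-A and mitochondrial-encoded COX-1 were then quantified by in-cell ELISA (quantitative immunocytochemistry).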

Structure (SMILES) | IC50 [1] [µM] | CC50 at 5 days [2] [µM] | CC50 [2] [µM]
C[C@@]1(O)[C@H](O)[C@@H](CO)O[C@H]1n1ccc(N)nc1=O [2′CMeC, 2′-C-methyl (2′CMe) cytidine] | > 200 | 50 ± 25 | 
C[C@@]1(O)[C@H](O)[C@@H](COP(=O)(O)OP(=O)(O)OP(=O)(O)O)O[C@H]1n1cnc2c(=O)[nH]c(N)nc21 [2′CMeGTP] | > 200 |  | 
[N-]=[N+]=N[C@]1(CO)O[C@@H](n2ccc(N)nc2=O)[C@H](O)[C@@H]1O [4′-AzidoC, 4′-azido cytidine] | > 200 | 11 ± 3 | 
COc1nc(N)nc2c1ncn2[C@@H]1O[C@H](COP(=O)(N[C@@H](C)C(=O)OCC(C)(C)C)Oc2cccc3ccccc23)[C@@H](O)[C@@]1(C)O (some centres unmarked) [BMS-986094] |  |  | 0.68 ± 0.1
CC(C)OC(=O)[C@H](C)N[P@](=O)(OC[C@H]1O[C@@](C#N)(c2ccc3c(N)ncnn23)[C@](C)(O)[C@@H]1OC(=O)C(C)C)Oc1ccccc1 [GS-6620] | > 200 |  | 31 ± 5
CCOc1nc(N)nc2c1ncn2[C@@H]1O[C@@H]2COP(=O)(OC(C)C)O[C@H]2[C@@]1(C)F (some centres unmarked) [PSI-938] | > 200 | > 100 | 
C[C@@]1(F)[C@H](O)[C@@H](CO)O[C@H]1n1ccc(N)nc1=O [PSI-6130] | > 200 | 70 ± 14 | 
CC(C)OC(=O)[C@H](C)N[P@](=O)(OC[C@H]1O[C@@H](n2ccc(=O)[nH]c2=O)[C@](C)(F)[C@@H]1O)Oc1ccccc1 [Sofosbuvir] | > 200 | > 100 | 
